pIC50: −log10 of the molar value.

The target in assay [1] is Bromodomain adjacent to zinc finger domain protein 2B (Homo sapiens) (UniProt Q9UIF8). Kind of assay: Binding affinity to BAZ2B (unknown origin) assessed as change in melting temperature at 100 uM incubated for 30 mins by thermal shift assay.
Assay [2] addresses T1, Bromodomain-containing protein 4 (Homo sapiens, UniProt O60885). Kind of assay: Inhibition of C-terminal His6-tagged BRD4 BD2 (unknown origin) using H-YSGRGK(Ac)GGK(Ac)GLGK(Ac)-GGAK(Ac)RHRK-Biotin-OH as substrate incubated for 1 hrs by HTRF assay. (Time-resolved FRET reads energy transfer from a long-lived donor to a nearby acceptor.)
The target of a further assay is T2, Peregrin (Homo sapiens) (UniProt P55201).
T2 sequence (whole entry): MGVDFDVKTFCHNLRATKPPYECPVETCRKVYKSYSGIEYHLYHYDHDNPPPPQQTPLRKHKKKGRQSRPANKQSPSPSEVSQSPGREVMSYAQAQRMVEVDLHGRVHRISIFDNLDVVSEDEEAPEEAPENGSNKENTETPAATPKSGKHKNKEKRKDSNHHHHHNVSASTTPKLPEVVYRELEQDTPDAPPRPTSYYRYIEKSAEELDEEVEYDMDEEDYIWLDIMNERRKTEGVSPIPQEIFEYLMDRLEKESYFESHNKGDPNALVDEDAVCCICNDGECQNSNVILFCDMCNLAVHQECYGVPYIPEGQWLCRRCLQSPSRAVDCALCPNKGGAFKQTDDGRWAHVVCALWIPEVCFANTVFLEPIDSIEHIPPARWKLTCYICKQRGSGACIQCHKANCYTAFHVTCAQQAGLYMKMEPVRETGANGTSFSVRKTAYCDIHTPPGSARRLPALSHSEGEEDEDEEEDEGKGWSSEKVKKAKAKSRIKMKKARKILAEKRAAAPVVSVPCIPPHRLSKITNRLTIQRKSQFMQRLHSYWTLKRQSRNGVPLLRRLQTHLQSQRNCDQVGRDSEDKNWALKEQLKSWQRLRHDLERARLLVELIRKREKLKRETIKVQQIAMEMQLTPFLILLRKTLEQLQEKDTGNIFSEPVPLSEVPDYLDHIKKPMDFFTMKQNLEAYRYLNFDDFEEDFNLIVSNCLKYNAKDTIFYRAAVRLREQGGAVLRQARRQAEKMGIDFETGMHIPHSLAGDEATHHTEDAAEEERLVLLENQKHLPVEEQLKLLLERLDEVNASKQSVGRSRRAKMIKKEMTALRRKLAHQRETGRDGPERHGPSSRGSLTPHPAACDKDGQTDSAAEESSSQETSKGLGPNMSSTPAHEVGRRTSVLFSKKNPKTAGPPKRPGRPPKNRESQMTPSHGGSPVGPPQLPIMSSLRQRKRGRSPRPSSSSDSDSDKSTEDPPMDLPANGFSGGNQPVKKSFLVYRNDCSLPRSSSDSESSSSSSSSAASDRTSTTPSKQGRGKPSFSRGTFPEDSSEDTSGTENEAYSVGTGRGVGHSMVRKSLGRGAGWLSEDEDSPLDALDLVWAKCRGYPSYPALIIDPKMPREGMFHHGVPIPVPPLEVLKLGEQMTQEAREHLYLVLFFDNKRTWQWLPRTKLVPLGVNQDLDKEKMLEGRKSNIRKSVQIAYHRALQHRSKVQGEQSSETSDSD
Kind of assay: Binding affinity to BRPF1 (unknown origin) assessed as change in melting temperature at 100 uM incubated for 30 mins by thermal shift assay.

The target of assay [3] is T1, Bromodomain-containing protein 4. As to conditions: dose 100.0 µM, time 30.0 min.
Assay [4] deals with T3, Bromodomain testis-specific protein (Homo sapiens, UniProt Q58F21). Kind of assay: Binding affinity to His6-fused BRDT BD2 (unknown origin) assessed as change in melting temperature at 100 uM incubated for 30 mins by thermal shift assay.
Assay [5] has as its target T4, Bromodomain-containing protein 7 (Homo sapiens) (UniProt Q9NPI1).
T4 sequence (whole entry): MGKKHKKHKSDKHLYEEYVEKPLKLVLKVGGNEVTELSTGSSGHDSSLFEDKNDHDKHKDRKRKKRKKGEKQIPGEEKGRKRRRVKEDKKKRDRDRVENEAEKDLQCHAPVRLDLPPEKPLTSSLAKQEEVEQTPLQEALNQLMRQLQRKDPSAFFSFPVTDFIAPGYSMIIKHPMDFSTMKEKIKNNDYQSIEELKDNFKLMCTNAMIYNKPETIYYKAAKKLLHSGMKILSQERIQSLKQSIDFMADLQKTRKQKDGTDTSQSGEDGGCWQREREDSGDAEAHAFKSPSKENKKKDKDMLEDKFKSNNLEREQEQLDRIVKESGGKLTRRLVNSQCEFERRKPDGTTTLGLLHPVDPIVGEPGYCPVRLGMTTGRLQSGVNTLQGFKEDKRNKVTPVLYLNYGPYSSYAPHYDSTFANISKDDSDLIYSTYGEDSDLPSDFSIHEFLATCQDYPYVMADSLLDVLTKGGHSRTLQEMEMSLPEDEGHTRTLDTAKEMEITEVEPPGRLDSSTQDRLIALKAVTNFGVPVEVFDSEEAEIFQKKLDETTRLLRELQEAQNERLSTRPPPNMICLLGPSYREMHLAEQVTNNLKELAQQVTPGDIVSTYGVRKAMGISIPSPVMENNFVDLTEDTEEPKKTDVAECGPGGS
Kind of assay: Binding affinity to His6-fused BRD7 (unknown origin) assessed as change in melting temperature at 100 uM incubated for 30 mins by thermal shift assay.

For assay [6], the target named is Bromodomain-containing protein 2 (Homo sapiens, UniProt P25440). Kind of assay: Binding affinity to His6-fused BRD2 BD2 (unknown origin) assessed as change in melting temperature at 100 uM incubated for 30 mins by thermal shift assay.
Bromodomain-containing protein 2, sequence (P25440 whole entry, looked up, the tested form may be a part): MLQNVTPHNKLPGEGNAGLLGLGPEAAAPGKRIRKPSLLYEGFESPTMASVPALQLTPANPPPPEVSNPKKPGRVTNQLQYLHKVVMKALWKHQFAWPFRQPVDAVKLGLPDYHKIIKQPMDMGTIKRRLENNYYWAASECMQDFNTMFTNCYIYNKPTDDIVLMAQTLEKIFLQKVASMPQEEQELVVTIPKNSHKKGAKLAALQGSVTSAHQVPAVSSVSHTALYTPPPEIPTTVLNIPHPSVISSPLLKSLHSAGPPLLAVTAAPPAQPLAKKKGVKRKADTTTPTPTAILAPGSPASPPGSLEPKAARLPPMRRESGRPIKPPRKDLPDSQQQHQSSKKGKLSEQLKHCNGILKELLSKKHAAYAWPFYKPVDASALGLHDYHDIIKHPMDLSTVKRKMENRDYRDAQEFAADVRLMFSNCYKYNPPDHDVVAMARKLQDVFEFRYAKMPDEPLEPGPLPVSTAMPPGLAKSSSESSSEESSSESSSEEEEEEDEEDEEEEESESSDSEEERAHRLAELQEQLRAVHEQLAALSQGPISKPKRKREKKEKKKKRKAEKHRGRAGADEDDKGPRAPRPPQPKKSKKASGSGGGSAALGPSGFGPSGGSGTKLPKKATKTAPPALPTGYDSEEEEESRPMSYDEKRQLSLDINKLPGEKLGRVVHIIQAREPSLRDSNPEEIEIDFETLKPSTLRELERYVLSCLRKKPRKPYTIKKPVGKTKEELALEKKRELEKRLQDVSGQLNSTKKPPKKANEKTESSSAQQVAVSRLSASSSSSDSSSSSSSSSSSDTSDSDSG
For assay [7], the target named is CREB-binding protein (Homo sapiens) (UniProt Q92793). Kind of assay: Binding affinity to CBP (unknown origin) assessed as change in melting temperature at 100 uM incubated for 30 mins by thermal shift assay.
In assay [8] the target is SWI/SNF-related matrix-associated actin-dependent regulator of chromatin subfamily A member 4 (Homo sapiens) (UniProt P51532). Kind of assay: Binding affinity to SMARCA4 (unknown origin) assessed as change in melting temperature at 100 uM incubated for 30 mins by thermal shift assay.
Assay [9] concerns the target T3, Bromodomain testis-specific protein. Kind of assay: Binding affinity to His6-fused BRDT BD1 (unknown origin) assessed as change in melting temperature at 100 uM incubated for 30 mins by thermal shift assay.
The target in assay [10] is PH-interacting protein (Homo sapiens) (UniProt Q8WWQ0). Kind of assay: Binding affinity to PHIP-2 (unknown origin) assessed as change in melting temperature at 100 uM incubated for 30 mins by thermal shift assay.
Assay [11] concerns the target T1, Bromodomain-containing protein 4. Kind of assay: Inhibition of C-terminal His6-tagged BRD4 BD1 (unknown origin) using H-YSGRGK(Ac)GGK(Ac)GLGK(Ac)-GGAK(Ac)RHRK-Biotin-OH as substrate incubated for 1 hrs by HTRF assay.
Assay [12] concerns the target Histone acetyltransferase KAT2B (Homo sapiens) (UniProt Q92831). Kind of assay: Binding affinity to PCAF (unknown origin) assessed as change in melting temperature at 100 uM incubated for 30 mins by thermal shift assay.

Bromodomain adjacent to zinc finger domain protein 2B (Homo sapiens), sequence (Q9UIF8 whole entry, the tested form may be a part): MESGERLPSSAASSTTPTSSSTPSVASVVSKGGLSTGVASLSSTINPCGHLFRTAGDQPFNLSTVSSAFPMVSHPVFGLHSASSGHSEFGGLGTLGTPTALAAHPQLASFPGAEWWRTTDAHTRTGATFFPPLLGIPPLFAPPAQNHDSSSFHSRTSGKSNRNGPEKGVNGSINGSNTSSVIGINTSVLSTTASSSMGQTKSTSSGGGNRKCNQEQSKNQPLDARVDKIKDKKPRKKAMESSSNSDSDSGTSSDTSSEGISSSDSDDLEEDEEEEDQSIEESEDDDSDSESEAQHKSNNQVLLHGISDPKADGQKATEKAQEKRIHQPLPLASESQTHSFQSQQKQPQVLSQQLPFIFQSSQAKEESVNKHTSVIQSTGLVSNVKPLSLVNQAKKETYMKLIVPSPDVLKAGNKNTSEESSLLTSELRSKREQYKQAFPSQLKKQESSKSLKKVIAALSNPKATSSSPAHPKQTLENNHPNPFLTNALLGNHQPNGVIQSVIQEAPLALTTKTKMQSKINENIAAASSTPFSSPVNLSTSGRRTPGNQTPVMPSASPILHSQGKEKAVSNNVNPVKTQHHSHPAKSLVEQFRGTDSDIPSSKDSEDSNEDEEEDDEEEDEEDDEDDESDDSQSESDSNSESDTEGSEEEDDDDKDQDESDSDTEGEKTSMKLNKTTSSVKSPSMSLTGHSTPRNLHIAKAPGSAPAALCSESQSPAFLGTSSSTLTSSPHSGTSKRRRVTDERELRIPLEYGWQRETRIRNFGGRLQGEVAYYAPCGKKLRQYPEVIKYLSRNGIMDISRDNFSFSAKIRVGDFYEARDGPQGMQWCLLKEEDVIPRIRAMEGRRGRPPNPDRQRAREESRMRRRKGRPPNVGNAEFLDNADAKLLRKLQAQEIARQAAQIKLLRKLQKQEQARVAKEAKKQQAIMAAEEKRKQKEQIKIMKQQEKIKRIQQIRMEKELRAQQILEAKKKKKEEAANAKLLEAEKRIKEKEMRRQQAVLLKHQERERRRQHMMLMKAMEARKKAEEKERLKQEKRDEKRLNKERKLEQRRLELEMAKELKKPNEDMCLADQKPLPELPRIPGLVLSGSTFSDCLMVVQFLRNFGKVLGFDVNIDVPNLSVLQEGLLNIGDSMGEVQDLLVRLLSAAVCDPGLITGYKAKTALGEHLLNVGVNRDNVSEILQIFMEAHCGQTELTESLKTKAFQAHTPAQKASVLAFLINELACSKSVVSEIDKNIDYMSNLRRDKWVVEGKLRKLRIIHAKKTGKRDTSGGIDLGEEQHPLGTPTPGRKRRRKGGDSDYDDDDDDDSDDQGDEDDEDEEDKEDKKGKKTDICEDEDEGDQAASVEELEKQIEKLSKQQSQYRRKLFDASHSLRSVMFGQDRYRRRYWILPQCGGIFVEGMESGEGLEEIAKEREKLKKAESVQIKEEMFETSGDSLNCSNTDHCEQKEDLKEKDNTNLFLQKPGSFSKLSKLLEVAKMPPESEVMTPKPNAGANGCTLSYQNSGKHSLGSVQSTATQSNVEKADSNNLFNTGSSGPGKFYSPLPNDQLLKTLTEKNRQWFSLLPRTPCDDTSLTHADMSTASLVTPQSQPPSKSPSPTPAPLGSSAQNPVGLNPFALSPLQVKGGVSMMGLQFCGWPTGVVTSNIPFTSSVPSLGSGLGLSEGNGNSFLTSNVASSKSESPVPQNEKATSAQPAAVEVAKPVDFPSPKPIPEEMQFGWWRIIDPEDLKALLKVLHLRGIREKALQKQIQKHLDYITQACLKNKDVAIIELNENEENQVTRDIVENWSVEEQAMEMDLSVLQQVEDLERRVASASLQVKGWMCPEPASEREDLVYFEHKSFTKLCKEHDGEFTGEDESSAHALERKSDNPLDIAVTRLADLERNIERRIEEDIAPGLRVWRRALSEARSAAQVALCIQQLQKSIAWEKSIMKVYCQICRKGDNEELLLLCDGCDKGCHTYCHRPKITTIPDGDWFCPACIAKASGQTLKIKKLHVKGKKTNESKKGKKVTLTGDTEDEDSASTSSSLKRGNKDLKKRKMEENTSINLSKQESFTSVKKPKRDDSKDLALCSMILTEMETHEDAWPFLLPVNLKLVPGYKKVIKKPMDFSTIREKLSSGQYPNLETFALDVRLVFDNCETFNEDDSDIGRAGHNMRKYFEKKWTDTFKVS
Histone acetyltransferase KAT2B (Homo sapiens), sequence (Q92831 whole entry, looked up): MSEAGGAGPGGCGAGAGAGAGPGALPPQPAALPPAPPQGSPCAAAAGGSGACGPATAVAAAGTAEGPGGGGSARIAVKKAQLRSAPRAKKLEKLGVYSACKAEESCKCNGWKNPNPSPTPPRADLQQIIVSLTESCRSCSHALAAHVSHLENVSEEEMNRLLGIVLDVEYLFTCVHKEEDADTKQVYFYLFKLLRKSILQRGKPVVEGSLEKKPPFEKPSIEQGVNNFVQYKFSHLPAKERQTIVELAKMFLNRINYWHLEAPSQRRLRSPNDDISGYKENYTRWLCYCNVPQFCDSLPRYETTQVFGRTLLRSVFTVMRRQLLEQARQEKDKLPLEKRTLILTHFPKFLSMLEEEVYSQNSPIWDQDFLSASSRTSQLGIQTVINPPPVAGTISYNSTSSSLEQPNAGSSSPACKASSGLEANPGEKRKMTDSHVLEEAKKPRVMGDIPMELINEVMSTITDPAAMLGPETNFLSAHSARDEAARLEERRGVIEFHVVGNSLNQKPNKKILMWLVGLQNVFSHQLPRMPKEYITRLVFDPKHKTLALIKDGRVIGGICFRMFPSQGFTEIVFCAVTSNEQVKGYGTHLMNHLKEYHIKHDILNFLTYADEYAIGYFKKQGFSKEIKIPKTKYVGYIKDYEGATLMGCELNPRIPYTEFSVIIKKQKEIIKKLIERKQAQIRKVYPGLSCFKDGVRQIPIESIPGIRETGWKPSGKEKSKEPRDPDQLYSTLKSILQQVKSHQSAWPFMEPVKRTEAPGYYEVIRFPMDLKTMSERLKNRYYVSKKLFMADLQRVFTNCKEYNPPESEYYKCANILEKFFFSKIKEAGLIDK

In the case of `Cc1cc(F)cc(C)c1Oc1ccc(C(C)(C)O)cc1-c1cn(C)c(=O)c2cc(-c3cnc(C4CCC4)[nH]3)oc12`, the shift in melting temperature (ΔTm) in assay [1] was -1 °C; on Peregrin (Homo sapiens) it was -1.5 °C; in assay [3] it was 16 °C; in assay [4] it was 14.5 °C; in [5] it was 0.25 °C; in [6], 11.2 °C. Further, the ΔTm was 0.5 °C in assay [7]; -0.5 °C in [8]; 3 °C in assay [9]; -2 °C in assay [10]; -1 °C in [12]. The pIC50 in [2] was 9.28; in assay [11] it was 6.82.
Take `Cc1cc(F)cc(C)c1Oc1ccc(C(C)(C)O)cc1-c1cn(C)c(=O)c2cc(-c3cnc(C4CC4)[nH]3)oc12`: the ΔTm is -0.75 °C in assay [1]; -2 °C at Peregrin (Homo sapiens); 16.2 °C in [3]; 15 °C in [4]; 0 °C in [5]; 11.2 °C in assay [6]. Moreover, the ΔTm in assay [7] was 1 °C; in [8] it was 0.25 °C; in assay [9] it was 2.75 °C; in assay [10], -2 °C; in assay [12], -0.5 °C. For the same compound, the negative-log IC50 (pIC50) in assay [2] was 9.23; in assay [11], 6.79.
With `Cc1cc(F)cc(C)c1Oc1ccc(C(C)(C)O)cc1-c1cn(C)c(=O)c2cc(-c3cnc(C4CCCC4)[nH]3)oc12`, the ΔTm in assay [1] is -0.25 °C; at Peregrin (Homo sapiens), -1.5 °C; in [4] it was 13.2 °C; in [5], 0.25 °C; in assay [6], 10.2 °C; in [7], 0.75 °C. For the same compound, the ΔTm is 0 °C in assay [8], 2 °C in assay [9], -2 °C in [10] and 0 °C in [12].
In the case of `Cc1cc(F)cc(C)c1Oc1ccc(C(C)(C)O)cc1-c1cn(C)c(=O)c2cc(-c3cnc(C4CCCCC4)[nH]3)oc12`, the ΔTm in [1] was -1 °C; on Peregrin (Homo sapiens), -1.25 °C; in assay [3], 14 °C; in [4], 11 °C; in [5], 0.25 °C; in assay [6], 8 °C. Further, the ΔTm was 0.5 °C in [7]; 0 °C in assay [8]; 2 °C in assay [9]; -2 °C in assay [10]; 0.25 °C in assay [12]. In addition, the pIC50 in [2] was 8.84; in assay [11] it was 6.49.

Broadly, the ΔTm is the change in melting temperature against a reference sample. For orientation: pIC50 means the negative decadic logarithm of the IC50, by convention in mol/L.

Values taken from ChEMBL document CHEMBL5154816, “Structure-Based Discovery and Optimization of Furo[3,2-c]pyridin-4(5H)-one Derivatives as Potent and Second Bromodomain (BD2)-Selective Bromo and Extra Terminal Domain (BET) Inhibitors” (J Med Chem, 2022).
